{
  "source": "patent US20220370310A1",
  "about": "“SURFACE-TREATED MAGNESIUM OR CALCIUM ION-CONTAINING MATERIALS AS WHITE PIGMENTS IN ORAL CARE COMPOSITIONS” (CHILDREN'S MEDICAL CENTER CORPORATION, priority 2020, published 2022)",
  "key": {"[1]": {"test_system": "antigen-specific T cell responses", "assay": "In vivo OVA immunization and T cell re-stimulation", "parameters": "species or system C57BL/6J mice", "experimental": "Flow cytometry: After FcR blockade, 7 days BMDCs were resuspended in MACS buffer (PBS with 1% FCS and 2 mM EDTA), and stained with the following fluorescently conjugated antibodies (BioLegend): anti-CD11c (clone N418), anti-I-A/I-E (clone M5/114.15.2), anti-CD40 (clone 3/23), anti-CD80(16-10A1), anti-CD69 clone (H1.2F3), anti-H-2Kb (clone AF6-88.5). Single cell suspension from the tumor or draining inguinal lymph nodes, or skin inguinal adipose tissue were resuspended in MACS buffer (PBS with 1% FCS and 2 mM EDTA), and stained with the following fluorescently conjugated antibodies (BioLegend): anti-CD8a (clone 53-6.7), anti-CD4 (clone RM4-5), anti-CD44 (clone IM7), anti-CD62L (MEL-14), anti-CD3 (17A2), anti-CD103 (2E7), anti-CD69 clone (H1.2F3), anti-CD45 (A20 or 30F11). LIVE/DEAD™ Fixable Violet Dead Cell Stain Kit (Molecular probes) was used to determine the viability of cells, and cells were stained for 20 minutes in PBS at 4° C. Draining inguinal lymph nodes T cells were stained with OVA-peptide tetramers at room temperature for 1 h. PE-conjugated H2K(b) SIINFEKL (OVA 257-264; SEQ ID NO: 1) and APC conjugated I-A(b) AAHAEINEA (OVA 329-337; SEQ ID NO: 2) were used. I-A(b) and H2K(b) associated with CLIP peptides were used as isotype controls. […] Data were analyzed using FlowJo software.\nIntracellular staining: For intracellular cytokine staining, cells were stimulated with 50 ng/ml phorbol 12-myristate 13-acetate (PMA) and 500 ng/ml ionomycin (Sigma-Aldrich) in the presence of GolgiStop (BD) and brefeldin A for 4-5 h. […] Data were analyzed using FlowJo software.\nIn vivo immunization and T cell re-stimulation: Female C57BL/6J mice aged 8 weeks, were immunized subcutaneously (s.c.) on the left lower back with either 150 μg/mouse endotoxin-free OVA plus 10 μg/mouse LPS emulsified in incomplete Freund's adjuvant, or with 150 μg/mouse endotoxin-free OVA, plus 65 μg/mouse oxPAPC or PGPC, plus 10 μg/mouse LPS emulsified in incomplete Freund's adjuvant. […] Secretion of IFNγ, IL-10 and IL-2 were measured by ELISA 5 days later. […]"}, "[2]": {"test_system": "B16OVA cells", "assay": "Immunization prior to tumor inoculation, B16OVA challenge", "assay_type": "in vivo, C57BL/6 mice", "details": "s.c. immunization with B16OVA WTL, challenge 15 days later", "experimental": "Whole tumor cell lysates preparation: To prepare whole tumor cell lysates (WTL) for immunization, tumor cell lines were cultured for 4-5 days in complete DMEM. When cells became confluent, supernatants were collected, and the cells were washed and dissociated using trypsin-EDTA (Gibco). Tumor cell lines were then resuspended at 5×10^6 cells/ml in their collected culture supernatant, then lysed by 3 cycles of freeze-thawing.\nIn vivo immunization and tumor challenges: For immunization prior tumor inoculation, C57BL/6 mice were injected subcutaneously (s.c.) into the right flank with PBS (unimmunized), WTL alone or with LPS, or WTL plus LPS and OxPAPC or PGPC all emulsified in incomplete Freud's adjuvant (IFA). In some experiments, LPS is replaced by MPLA. […] Tumor-free mice were re-challenged s.c. into the upper back with a lethal dose of 5×10^5 viable B16OVA or B16F-10 cells, or 1×10^6 of viable MC38-OVA cells as indicated.\nTumor Infiltration: To assess the frequency of tumor-infiltrating lymphocytes (TIL) in immunized mice, tumors were harvested when their size reached 1.8-2 cm. Tumors were dissociated using the tumor Dissociation Kit (Milteny Biotec) and the gentleMACS dissociator following the manufacturer's protocol. […] CD45^+ cells were positively selected using CD45 microbeads (Milteny Biotec), and T cell infiltration was assessed by flow cytometry. […]"}, "[3]": {"test_system": "OT-I and OT-II T cells", "assay": "OT-I and OT-II in vitro T-cell stimulation", "assay_type": "cell-based, mouse", "details": "OVA-loaded BMDCs pretreated with stimulus, FIG. 1F", "experimental": "OT-I and OT-II in vitro T-cell stimulation: Splenic CD8+ and CD4^+ T cells were sorted from OT-I and OT-II mice by magnetic cell sorting with anti-CD8 beads or anti-CD4 beads respectively (Miltenyi Biotech). Sorted T cells were then seeded in 96-well plates at a concentration of 100.000 cells per well in the presence of either 20.000 or 10.000 DCs (5:1 or 10:1 ratio) that were pretreated with either LPS (activation stimuli) or LPS+PGPC (hyperactivation stimuli) or LPS+Alum (pyroptotic stimuli) and pulsed (or not) with OVA protein or SIINFEKL (SEQ ID NO: 1) peptide at 100 μg/ml for 2 hours. 5 days post culture, supernatants were collected and clarified by centrifugation for short-term storage at −20° C. and cytokine measurement by ELISA.\nIntracellular staining: For intracellular cytokine staining, cells were stimulated with 50 ng/ml phorbol 12-myristate 13-acetate (PMA) and 500 ng/ml ionomycin (Sigma-Aldrich) in the presence of GolgiStop (BD) and brefeldin A for 4-5 h. Cells were then washed twice with PBS, and stained with LIVE/DEAD™ Fixable violet or green Dead Cell Stain Kit (Molecular probes) in PBS for 20 min at 4° C. Cells were washed with MACS buffer, and stained for appropriate surface markers for 20 min at 4° C. […] Data were analyzed using FlowJo software."}, "[4]": {"test_system": "BMDCs", "details": "prior work (Zanoni et al., 2016); cited from earlier work"}},
  "data": [
    {"compound": "CCCCCCCCCCCCCCCC(=O)OC[C@H](COP(=O)([O-])OCC[N+](C)(C)C)OC(=O)CCCC(=O)O", "note": "[PGPC, [(2R)-2-(4-carboxybutanoyloxy)-3-hexadecanoyloxypropyl] 2-(trimethylazaniumyl)ethyl phosphate]", "values": [
      {"measurement": "effector and memory T cell generation in dLN", "setting": "[1]; 7 and 40 days post-immunization with OVA (+LPS), CD44/CD62L flow cytometry", "result": "enhance the magnitude of effector and memory T cell generation"},
      {"measurement": "antigen-specific tetramer+IFNγ+ T cell responses", "setting": "[1]; WT mice, 7 days post immunization with OVA, re-stimulated 7 days with OVA-loaded BMDC", "result": "highest frequency of tetramer+IFNγ+ responses"},
      {"measurement": "protection against B16OVA tumor challenge", "setting": "[2]", "result": "confers optimal protection"}
    ]},
    {"compound": "lipopolysaccharide [LPS]", "values": [
      {"measurement": "IL-10 and IL-13 release by OT-II T cells", "setting": "[3]", "result": "large amounts of IL-10, and IL-13"},
      {"measurement": "TH1/TH2 phenotype of the T cell response", "setting": "[1]; immunization with OVA", "result": "mixed TH1 and TH2 phenotype"},
      {"measurement": "TNFα and IL-1β release by LPS-activated BMDCs", "setting": "[4]", "result": "release TNFα but not IL-1β"}
    ]}
  ]
}
